The values below come from patent US20260354380A1, “PYRAZOLO PESTICIDAL COMPOUNDS” (BASF SE, priority 2022, published 2026).

Holding throughout (format): in vivo
One data set has as its system Heliothis virescens. The data set can be described thus: Action on Tobacco Budworm (Heliothis virescens). The note with it: 800 ppm, egg and larval mortality, 5 days. The procedure:
Example B5: Action on Tobacco Budworm (Heliothis virescens)
For evaluating control of tobacco budworm (Heliothis virescens) the test unit consisted of 96-well-microtiter plates containing an insect diet and 15-25 H. virescens eggs.
The compounds were formulated using a solution containing 75% v/v water and 25% v/v DMSO. Different concentrations of formulated compounds were sprayed onto the insect diet at 10 μl, using a custom-built micro atomizer, at two replications.
After application, microtiter plates were incubated at about 28±1 °C and about 80±5% relative humidity for 5 days. Egg and larval mortality were then visually assessed.

Another data set relates to Spodoptera eridania. The data set can be described thus: Action on Southern Armyworm (Spodoptera eridania), 2nd Instar Larvae. The note with it: 300 ppm, 2nd instar larvae, 4 days after treatment. The procedure:
Example B7: Action on Southern Armyworm (Spodoptera eridania), 2nd Instar Larvae
The active compounds were formulated by a Tecan liquid handler in 100% cyclohexanone as a 10,000 ppm solution supplied in tubes. The 10,000 ppm solution was serially diluted in 100% cyclohexanone to make interim solutions. These served as stock solutions for which final dilutions were made by the Tecan in 50% acetone: 50% water (v/v) into 10 or 20 ml glass vials. A nonionic surfactant (Kinetic®) was included in the solution at a volume of 0.01% (v/v). The vials were then inserted into an automated electrostatic sprayer equipped with an atomizing nozzle for application to plants/insects.
Lima bean plants (variety Sieva) were grown 2 plants to a pot and selected for treatment at the 1st true leaf stage. Test solutions were sprayed onto the foliage by an automated electrostatic plant sprayer equipped with an atomizing spray nozzle. The plants were dried in the sprayer fume hood and then removed from the sprayer. Each pot was placed into perforated plastic bags with a zip closure. About 10 to 11 armyworm larvae were placed into the bag and the bags zipped closed. Test plants were maintained in a growth room at about 25 °C and about 20-40% relative humidity for 4 days, avoiding direct exposure to fluorescent light (24 hour photoperiod) to prevent trapping of heat inside the bags. Mortality and reduced feeding were assessed 4 days after treatment, compared to untreated control plants.
(§1) Compounds disclosed in the document WO2021013561 were prepared according to procedures described therein and their pesticidal activities were determined by procedure analogues to the procedures as described above in examples B6 and B7.

Another data set relates to Aedes aegypti. Description: whole plant or invertebrate. The following applies: for mortality in comparison with untreated controls: 800 ppm, larvae, 2 days. On the procedure: Example B1: Action on Yellow Fever Mosquito (Aedes aegypti)
For evaluating control of yellow fever mosquito (Aedes aegypti) the test unit consisted of 96-well-microtiter plates containing 200 μl of tap water per well and 5-15 freshly hatched A. aegypti larvae.
The active compounds or mixtures were formulated using a solution containing 75% (v/V) water and 25% (v/v) DMSO. Different concentrations of formulated compounds or mixtures were sprayed onto the insect diet at 2.5 μl, using a custom-built micro atomizer, at two replications. For experimental mixtures in these tests identical volumes of both mixing partners at the desired concentrations respectively, were mixed together.
After application, microtiter plates were incubated at 28±1 °C, 80±5% RH for 2 days. Larval mortality was then visually assessed.

The next data set concerns Anthonomus grandis. The data set can be described thus: Action on Boll Weevil (Anthonomus grandis). The following applies: 800 ppm, egg and larval mortality, 5 days. The procedure: Example B3: Action on Boll Weevil (Anthonomus grandis)
For evaluating control of boll weevil (Anthonomus grandis) the test unit consisted of 96-well-microtiter plates containing an insect diet and 5-10 A. grandis eggs.
The compounds were formulated using a solution containing 75% (v/v) water and 25% (v/v) DMSO. Different concentrations of formulated compounds were sprayed onto the insect diet at 5 μl, using a custom-built micro atomizer, at two replications.
After application, microtiter plates were incubated at about 25±1 °C and about 75±5% relative humidity for 5 days. Egg and larval mortality were then visually assessed.

The next data set deals with Plutella xylostella. The data set can be described thus: Action on Diamond Back Moth (Plutella xylostella), cabbage leaf dip, 3rd instar larvae. The following applies: 300 ppm, 3rd instar larvae, 72 hours after treatment. The procedure:
Example B6: Action on Diamond Back Moth (Plutella xylostella)
The active compound is dissolved at the desired concentration in a mixture of 1:1 (v/v) distilled water:acetone. Surfactant (Kinetic® HV) is added at a rate of 0.01% (v/v). The test solution is prepared at the day of use.
Leaves of cabbage were dipped in test solution and air-dried. Treated leaves were placed in petri dishes lined with moist filter paper and inoculated with ten 3rd instar larvae. Mortality was recorded 72 hours after treatment. Feeding damages were also recorded using a scale of 0-100%.
as §1

Molecules are shown by their SMILES. Some results are limits rather than exact numbers.

With `Cc1ccc(C(C)C)c(N2C(=O)CSC2=NC(=O)Nc2ccc(-n3cc(NC(=O)c4ccc(C5CC5(F)F)cc4)c(C)n3)cc2)c1` (racemic) [Example C-65], the “mortality in comparison with untreated controls” value (“mortality in comparison” for short) is “at least 75%” in the data set on Heliothis virescens; “at least 75%” in the data set on Spodoptera eridania; “at least 50%” with Aedes aegypti; “at least 75%” with Anthonomus grandis; “at least 75%” with Plutella xylostella.
The term mortality denotes the share of the test organisms that died. Consider `Cc1ccc(C(C)C)c(N2C(=O)CS/C2=N\C(=O)Nc2ccc(-n3nc(C)c(NC(=O)c4ccc(OC(F)(F)F)cc4)c3C3CC3)cc2)c1` [Example C-5, N-[5-cyclopropyl-1-[4-[[(Z)-[3-(2-isopropyl-5-methyl-phenyl)-4-oxo-thiazolidin-2-ylidene]carbamoyl]amino]phenyl]-3-methyl-pyrazol-4-yl]-4-(trifluoromethoxy)benzamide], for which the mortality at 800 ppm in the data set with Heliothis virescens (Heliothis virescens, 120 h, read-out: mortality in comparison with untreated controls) is not below 75%; in the data set on Aedes aegypti (Aedes aegypti, 48 h, read-out: mortality in comparison with untreated controls), not below 50%; in the data set with Anthonomus grandis (Anthonomus grandis, 120 h, read-out: mortality in comparison with untreated controls) it was not below 75%. Further, the mortality at 300 ppm in the data set on Spodoptera eridania (Spodoptera eridania, 96 h, read-out: mortality in comparison with untreated controls) was not below 75%; with Plutella xylostella (Plutella xylostella, foliar, read-out: mortality in comparison with untreated controls), not below 75%.
On to `Cc1nn(-c2ccc(NC(=O)N=C3SCC(=O)N3c3ccccc3C(C)C)cc2)cc1NC(=O)c1ccc(OC(F)(F)F)cc1` [Example C-8], for which the “mortality in comparison” value is reported as “at least 75%” with Heliothis virescens; “at least 75%” in the data set with Spodoptera eridania; “at least 50%” with Aedes aegypti; “at least 75%” with Anthonomus grandis; “at least 75%” in the data set with Plutella xylostella.
Turning to `Cc1ccc(C(F)(F)F)c(N2C(=O)CSC2=NC(=O)Nc2ccc(-n3cc(NC(=O)c4ccc(OC(F)(F)F)cc4)c(C)n3)cc2)c1` [Example C-12], the “mortality in comparison” value in the data set on Heliothis virescens is recorded as “at least 75%”; in the data set with Spodoptera eridania it was “at least 75%”; in the data set on Aedes aegypti, “at least 50%”; with Anthonomus grandis, “at least 75%”; with Plutella xylostella, “at least 75%”.
In the case of `Cc1ccc(C(C)C)c(N2C(=O)CS/C2=N\C(=O)Nc2ccc(-n3cc(NC(=O)c4ccc(OC(F)(F)F)cc4)c(C)n3)cc2C#N)c1` [Example C-13], the “mortality in comparison” value in the data set on Heliothis virescens is on record as “at least 75%”; with Spodoptera eridania it was “at least 75%”; with Aedes aegypti, “at least 50%”; in the data set on Anthonomus grandis, “at least 75%”; in the data set on Plutella xylostella it was “at least 75%”.
For `COc1cc(-n2cc(NC(=O)c3ccc(OC(F)(F)F)cc3)c(C)n2)ccc1NC(=O)/N=C1\SCC(=O)N1c1cc(C)ccc1C(C)C` [Example C-14], the “mortality in comparison” value in the data set on Heliothis virescens is recorded as “at least 75%”; with Spodoptera eridania, “at least 75%”; with Aedes aegypti it was “at least 50%”; in the data set with Anthonomus grandis it was “at least 75%”; in the data set with Plutella xylostella it was “at least 75%”.
For the compound `Cc1ccc(C(C)C)c(N2C(=O)CS/C2=N\C(=O)Nc2ccc(-n3nc(C)c(NC(=O)c4ccc(OC(F)(F)F)cc4)c3C)cc2)c1` [Example C-15], the “mortality in comparison” value with Heliothis virescens is on record as “at least 75%”; in the data set with Spodoptera eridania it was “at least 75%”; with Aedes aegypti, “at least 50%”; in the data set with Anthonomus grandis it was “at least 75%”; in the data set with Plutella xylostella, “at least 75%”.
For the compound `Cc1ccc(C(F)(F)F)c(N2C(=O)CS/C2=N\C(=O)Nc2ccc(-n3nc(C)c(NC(=O)c4ccc(OC(F)(F)F)cc4)c3C)cc2)c1` [Example C-16], the “mortality in comparison” value is listed as “at least 75%” with Heliothis virescens; “at least 75%” with Spodoptera eridania; “at least 50%” with Aedes aegypti; “at least 75%” in the data set with Anthonomus grandis; “at least 75%” in the data set on Plutella xylostella.
For `Cc1ccc(C(C)C)c(N2C(=O)CS/C2=N\C(=O)Nc2ccc(-n3nc(C)c(NC(=O)c4ccc(OC(F)(F)F)c(F)c4)c3C)c(F)c2)c1` [Example C-21], the “mortality in comparison” value in the data set with Heliothis virescens is listed as “at least 75%”; in the data set on Spodoptera eridania, “at least 75%”; in the data set on Aedes aegypti it was “at least 50%”; in the data set on Anthonomus grandis, “at least 75%”; in the data set with Plutella xylostella, “at least 75%”.
In the case of `Cc1ccc(C(C)C)c(N2C(=O)CS/C2=N\C(=O)Nc2ccc(-n3cc(NC(=O)c4ccc(Cl)c(Cl)c4)c(C)n3)cc2)c1` [Example C-26], the “mortality in comparison” value is listed as “at least 75%” in the data set on Heliothis virescens; “at least 75%” with Spodoptera eridania; “at least 50%” in the data set on Aedes aegypti; “at least 75%” in the data set on Anthonomus grandis; “at least 75%” in the data set with Plutella xylostella.
Consider `Cc1ccc(C(C)C)c(N2C(=O)CS/C2=N\C(=O)Nc2ccc(-n3cc(NC(=O)c4ccc(F)c(Cl)c4)c(C)n3)cc2)c1` [Example C-28], for which the “mortality in comparison” value is reported as “at least 75%” in the data set on Heliothis virescens; “at least 75%” with Spodoptera eridania; “at least 50%” in the data set with Aedes aegypti; “at least 75%” with Anthonomus grandis; “at least 75%” in the data set with Plutella xylostella.
Consider `Cc1ccc(C(C)C)c(N2C(=O)CS/C2=N\C(=O)Nc2ccc(-n3cc(NC(=O)c4ccc(Br)cc4)c(C)n3)cc2)c1` [Example C-30], for which the “mortality in comparison” value in the data set on Heliothis virescens was “at least 75%”; in the data set with Spodoptera eridania, “at least 75%”; in the data set on Aedes aegypti it was “at least 50%”; in the data set with Anthonomus grandis, “at least 75%”; in the data set on Plutella xylostella it was “at least 75%”.
In the case of `C#CCOc1ccc(C(=O)Nc2cn(-c3ccc(NC(=O)N=C4SCC(=O)N4c4cc(C)ccc4C(C)C)cc3)nc2C)cc1` [Example C-67], the “mortality in comparison” value with Heliothis virescens is reported as “at least 75%”; in the data set with Spodoptera eridania it was “at least 75%”; in the data set with Aedes aegypti, “at least 50%”; in the data set with Plutella xylostella, “at least 75%”.
For the compound `Cc1ccc(C(C)C)c(N/C(=N/C(=O)Nc2ccc(-n3cc(NC(=O)c4ccc(OC(F)(F)F)cc4)c(C)n3)cc2)SCOC(=O)C(C)C)c1` [Example C-129], the “mortality in comparison” value in the data set on Heliothis virescens was “at least 75%”; with Aedes aegypti, “at least 50%”; in the data set with Anthonomus grandis, “at least 75%”; with Plutella xylostella it was “at least 75%”.
